Structures are written as SMILES. pIC50: −log10 of the molar value. Where only a bound is given, the exact number is not on record here.

For experiment [1], the target named is Met (phospho-Met, HGF-stimulated PC-3 prostate cancer cells) (Homo sapiens (Human), UniProt P08581). Kind of experiment: Met autophosphorylation ELISA in PC-3 cells (Example F). As to conditions: cellular activity; Met autophosphorylation ELISA in PC-3 cells; read-out: c-Met IC50. It is filed as cell-based. An outline of the steps:
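Sandwich ELISA for phospho-Met (panTyr) in PC-3 lysates. Cells starved 3 h serum-free, compound 1 h (8-pt curve, 0.3% DMSO), HGF 100 ng/mL 10 min. 100% = HGF + DMSO; 0% = HGF + reference inhibitor. IC50 by 4-parameter fit.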
For orientation: An ELISA detects its analyte on a solid surface through an enzyme-linked reagent.

Experiment [2] has as its target Human MER (residues 528-999) (Homo sapiens (Human), UniProt Q12866). As to the kind of experiment: Human Mer kinase assay, HTRF KinEase (Example C-2). As to conditions: protocol of Example C-2 (other compounds). It is filed as biochemical. In short, it runs like this:
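Recombinant MER 528-999 (1 ng/well) in buffer with 5 mM MgCl2 and 1 mM DTT was reacted with biotinylated peptide and ATP at Km (40 μM) for 60 min at room temperature. EDTA stop with SA-XL665 and Eu3+ TK antibody, then 665/620 nm HTRF read; IC50 from 4-parameter fit.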

The target of experiment [3] is Mer (phospho-Mer, MERTK-transfected 293A cells) (Homo sapiens (Human), UniProt Q12866). Kind of experiment: Mer autophosphorylation ELISA in transient transfected 293A cells (Example H). It is filed as cell-based. Conditions: cellular activity; Mer autophosphorylation ELISA in transient transfected 293A cells. In short, it runs like this:
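293A cells transiently transfected with human MERTK were treated 1 h in serum-free medium with an 8-point compound dilution (0.3% DMSO final). Lysates were assayed by phospho-Mer sandwich ELISA against a phospho-Mer standard; IC50 came from a 4-parameter logistic fit, normalised to DMSO (100%) and reference-inhibitor (0%) controls.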

The target of experiment [4] is Human MET (residues 956-1390) (Homo sapiens (Human), UniProt P08581). As to the kind of experiment: Human Met kinase assay, HTRF KinEase (Example D-2). The format is biochemical. Conditions: protocol of Example D-2 (other compounds); read-out: c-Met IC50. An outline of the steps: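 MET kinase domain (956-1390), 0.1 ng/well, in buffer with 5 mM MgCl2, 1 mM DTT and 1 mM MnCl2, phosphorylated a biotinylated peptide at ATP Km for 40 min at RT; 10 concentrations, 3% DMSO final. EDTA-stopped HTRF read after 60 min; IC50 from a 4-parameter logistic fit.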
Chain of Human MET (residues 956-1390) (P08581 956-1390): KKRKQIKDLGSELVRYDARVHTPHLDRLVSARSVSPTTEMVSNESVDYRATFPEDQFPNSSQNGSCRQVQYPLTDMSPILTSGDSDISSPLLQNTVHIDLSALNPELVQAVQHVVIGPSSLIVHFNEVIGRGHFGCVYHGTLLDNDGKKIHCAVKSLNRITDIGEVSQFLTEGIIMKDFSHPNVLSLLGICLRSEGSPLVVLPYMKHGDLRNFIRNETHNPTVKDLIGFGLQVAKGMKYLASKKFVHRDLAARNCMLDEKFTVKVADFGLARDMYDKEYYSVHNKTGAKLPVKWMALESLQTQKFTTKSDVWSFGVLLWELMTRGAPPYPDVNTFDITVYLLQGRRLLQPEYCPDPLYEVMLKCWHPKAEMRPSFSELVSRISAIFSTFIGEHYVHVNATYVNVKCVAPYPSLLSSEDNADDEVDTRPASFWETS

Chain of Met (phospho-Met, HGF-stimulated PC-3 prostate cancer cells) (P08581 25-1390): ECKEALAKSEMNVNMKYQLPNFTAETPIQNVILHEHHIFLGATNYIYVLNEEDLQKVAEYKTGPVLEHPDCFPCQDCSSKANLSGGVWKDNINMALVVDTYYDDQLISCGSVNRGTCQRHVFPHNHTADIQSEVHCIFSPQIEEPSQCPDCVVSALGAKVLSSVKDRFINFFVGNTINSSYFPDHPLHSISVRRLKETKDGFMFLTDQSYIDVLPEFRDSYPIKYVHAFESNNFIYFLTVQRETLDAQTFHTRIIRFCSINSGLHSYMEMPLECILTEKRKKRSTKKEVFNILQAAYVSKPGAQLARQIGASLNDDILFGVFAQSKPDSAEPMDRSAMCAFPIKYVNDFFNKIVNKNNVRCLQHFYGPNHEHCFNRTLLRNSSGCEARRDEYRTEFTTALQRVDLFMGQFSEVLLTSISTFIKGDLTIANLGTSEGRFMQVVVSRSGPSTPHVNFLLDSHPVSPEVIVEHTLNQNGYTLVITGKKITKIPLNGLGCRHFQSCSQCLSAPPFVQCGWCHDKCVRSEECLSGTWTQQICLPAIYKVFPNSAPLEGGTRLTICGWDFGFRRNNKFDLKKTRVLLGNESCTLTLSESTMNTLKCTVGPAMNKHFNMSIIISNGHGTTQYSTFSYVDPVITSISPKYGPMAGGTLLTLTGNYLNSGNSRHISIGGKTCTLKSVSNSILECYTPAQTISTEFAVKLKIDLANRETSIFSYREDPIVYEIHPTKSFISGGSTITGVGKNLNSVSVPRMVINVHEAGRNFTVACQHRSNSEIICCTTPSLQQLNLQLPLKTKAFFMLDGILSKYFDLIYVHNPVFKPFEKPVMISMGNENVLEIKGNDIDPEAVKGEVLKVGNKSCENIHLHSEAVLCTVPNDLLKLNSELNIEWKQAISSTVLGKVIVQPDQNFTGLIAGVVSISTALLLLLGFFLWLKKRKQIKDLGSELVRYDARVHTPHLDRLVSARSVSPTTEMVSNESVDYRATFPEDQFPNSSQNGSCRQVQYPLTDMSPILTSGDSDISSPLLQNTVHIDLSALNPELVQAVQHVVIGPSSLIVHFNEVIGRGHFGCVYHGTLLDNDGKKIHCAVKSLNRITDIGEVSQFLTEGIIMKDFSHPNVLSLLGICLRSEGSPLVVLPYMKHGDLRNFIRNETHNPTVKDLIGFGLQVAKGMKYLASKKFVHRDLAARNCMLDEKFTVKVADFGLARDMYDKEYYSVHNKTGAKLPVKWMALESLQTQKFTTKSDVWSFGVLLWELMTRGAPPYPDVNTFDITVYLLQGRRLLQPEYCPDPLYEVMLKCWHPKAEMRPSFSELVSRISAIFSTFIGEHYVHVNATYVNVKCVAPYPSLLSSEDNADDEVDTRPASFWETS
Chain of Human MER (residues 528-999) (Q12866 528-999): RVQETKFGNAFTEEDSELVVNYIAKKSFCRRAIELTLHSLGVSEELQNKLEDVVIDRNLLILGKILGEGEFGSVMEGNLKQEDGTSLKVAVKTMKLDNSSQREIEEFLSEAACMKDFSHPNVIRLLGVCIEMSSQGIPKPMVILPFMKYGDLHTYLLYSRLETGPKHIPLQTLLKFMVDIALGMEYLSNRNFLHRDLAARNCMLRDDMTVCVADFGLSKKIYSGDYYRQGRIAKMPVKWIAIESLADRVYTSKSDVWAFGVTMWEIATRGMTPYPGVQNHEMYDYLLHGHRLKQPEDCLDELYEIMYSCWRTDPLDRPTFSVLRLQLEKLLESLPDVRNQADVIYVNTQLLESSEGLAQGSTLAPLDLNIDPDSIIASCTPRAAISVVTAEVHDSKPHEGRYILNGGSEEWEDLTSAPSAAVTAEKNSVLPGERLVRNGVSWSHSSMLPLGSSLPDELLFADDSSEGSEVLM
Chain of Mer (phospho-Mer, MERTK-transfected 293A cells) (Q12866 21-999): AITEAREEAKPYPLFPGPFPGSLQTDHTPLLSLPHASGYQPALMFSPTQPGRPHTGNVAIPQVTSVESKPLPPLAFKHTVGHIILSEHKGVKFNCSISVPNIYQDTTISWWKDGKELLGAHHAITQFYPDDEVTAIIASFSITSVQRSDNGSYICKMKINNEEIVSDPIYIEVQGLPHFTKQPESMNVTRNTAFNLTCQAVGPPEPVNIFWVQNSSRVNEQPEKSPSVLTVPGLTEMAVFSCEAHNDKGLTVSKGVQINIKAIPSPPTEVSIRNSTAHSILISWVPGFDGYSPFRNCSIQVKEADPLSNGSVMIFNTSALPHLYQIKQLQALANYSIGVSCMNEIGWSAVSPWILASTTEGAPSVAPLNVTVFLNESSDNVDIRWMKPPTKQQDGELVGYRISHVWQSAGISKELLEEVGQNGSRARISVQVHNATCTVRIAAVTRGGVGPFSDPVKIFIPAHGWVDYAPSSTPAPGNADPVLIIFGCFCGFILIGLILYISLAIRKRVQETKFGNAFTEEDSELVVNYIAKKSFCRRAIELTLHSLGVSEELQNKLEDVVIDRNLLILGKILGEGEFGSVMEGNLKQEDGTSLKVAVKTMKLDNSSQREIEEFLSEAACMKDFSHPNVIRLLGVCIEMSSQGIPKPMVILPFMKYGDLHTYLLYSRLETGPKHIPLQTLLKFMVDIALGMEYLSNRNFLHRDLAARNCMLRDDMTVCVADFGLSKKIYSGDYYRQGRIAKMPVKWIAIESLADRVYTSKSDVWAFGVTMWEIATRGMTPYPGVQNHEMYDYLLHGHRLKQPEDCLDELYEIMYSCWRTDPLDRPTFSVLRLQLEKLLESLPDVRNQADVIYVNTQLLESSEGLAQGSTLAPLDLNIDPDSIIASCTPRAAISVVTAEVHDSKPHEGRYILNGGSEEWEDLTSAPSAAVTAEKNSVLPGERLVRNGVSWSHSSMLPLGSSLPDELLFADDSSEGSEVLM

What is called pIC50 is −log10 of the IC50, conventionally taken in molar units. As for `COc1cc2nccc(Oc3ccc(NC(=O)c4ncc(C)n(-c5ccc(F)cc5C)c4=O)cc3F)c2nc1OC` [Compound 393, N-[4-[(6,7-dimethoxy-1,5-naphthyridin-4-yl)oxy]-3-fluorophenyl]-4-(4-fluoro-2-methylphenyl)-5-methyl-3-oxopyrazine-2-carboxamide], the negative logarithm of the IC50 (pIC50) in experiment [1], in experiment [2], in experiment [3] and in experiment [4] was greater than 7.00 throughout.

Take `COc1cc2nccc(Oc3ccc(NC(=O)c4nccn(-c5ccc(F)cc5)c4=O)cc3F)c2nc1OC` [Compound 379, N-[4-[(6,7-dimethoxy-1,5-naphthyridin-4-yl)oxy]-3-fluorophenyl]-4-(4-fluorophenyl)-3-oxopyrazine-2-carboxamide]: the negative logarithm of the IC50 (pIC50) in experiment [1], in experiment [2], in experiment [3] and in experiment [4] was greater than 7.00 each time.

`COc1ccc2nccc(Oc3ccc(NC(=O)c4ncc(C)n(-c5ccc(F)cc5)c4=O)cc3F)c2n1` [Compound 264, N-[3-Fluoro-4-[(6-methoxy-1,5-naphthyridin-4-yl)oxy]phenyl]-4-(4-fluorophenyl)-5-methyl-3-oxopyrazine-2-carboxamide]: the pIC50 in experiment [1], in experiment [2], in experiment [3] and in experiment [4] was greater than 7.00 throughout.

For `Cc1ccc(C(=O)Nc2ccc(Oc3ccnc4cc(OCc5ccccc5)cnc34)c(F)c2)c(=O)n1-c1ccc(F)cc1` [Compound 275, 1-(4-Fluorophenyl)-N-[3-fluoro-4-[(7-phenylmethoxy-1,5-naphthyridin-4-yl)oxy]phenyl]-6-methyl-2-oxopyridine-3-carboxamide], the negative-log IC50 (pIC50) in experiment [1] was greater than 7.00; in experiment [2], greater than 7.00; in experiment [3], greater than 7.00; in experiment [4], 6.52 to 7.00.

Regarding `CCn1cc(C(=O)Nc2ccc(Oc3ccnc4cc(OC)cnc34)c(F)c2)c(=O)c(-c2ccc(F)cc2)c1CO` [Compound 273, 1-Ethyl-N-[3-fluoro-4-[(7-methoxy-1,5-naphthyridin-4-yl)oxy]phenyl]-5-(4-fluorophenyl)-6-(hydroxymethyl)-4-oxopyridine-3-carboxamide], the pIC50 in experiment [1], in experiment [2], in experiment [3] and in experiment [4] was greater than 7.00 each time.

Turning to `Cc1nc(C)c(-c2ccc(F)cc2)c(O)c1C(=O)Nc1ccc(Oc2ccnc3cc(OCc4ccccc4)cnc23)c(F)c1` [Compound 277, 5-(4-Fluorophenyl)-N-[3-fluoro-4-[(7-phenylmethoxy-1,5-naphthyridin-4-yl)oxy]phenyl]-4-hydroxy-2,6-dimethylpyridine-3-carboxamide], the pIC50 in experiment [1], in experiment [2], in experiment [3] and in experiment [4] was greater than 7.00 each time.

Regarding `COc1ccc2nccc(Oc3ccc(NC(=O)c4ncc(C)n(-c5ccc(F)cc5)c4=O)cc3)c2n1` [Compound 378, 4-(4-fluorophenyl)-N-[4-[(6-methoxy-1,5-naphthyridin-4-yl)oxy]phenyl]-5-methyl-3-oxopyrazine-2-carboxamide], the pIC50 in experiment [1], in experiment [2], in experiment [3] and in experiment [4] was greater than 7.00 in each case.

`COc1cc2nccc(Oc3ccc(NC(=O)c4cn(C)cc(-c5c(C)cc(F)cc5C)c4=O)cc3F)c2nc1OC` [Compound 268, N-[4-[(6,7-Dimethoxy-1,5-naphthyridin-4-yl)oxy]-3-fluorophenyl]-5-(4-fluoro-2,6-dimethylphenyl)-1-methyl-4-oxopyridine-3-carboxamide]: the negative logarithm of the IC50 (pIC50) in experiment [1], in experiment [2], in experiment [3] and in experiment [4] was greater than 7.00 throughout.

On to `COCc1ncc(C(=O)Nc2ccc(Oc3ccnc4cc(OC)c(OC)nc34)c(F)c2)c(O)c1-c1ccc(F)cc1` [Compound 301, N-[4-[(6,7-Dimethoxy-1,5-naphthyridin-4-yl)oxy]-3-fluorophenyl]-5-(4-fluorophenyl)-4-hydroxy-6-(methoxymethyl)pyridine-3-carboxamide], for which the negative logarithm of the IC50 (pIC50) in experiment [1], in experiment [2], in experiment [3] and in experiment [4] was greater than 7.00 throughout.

The values above are taken from patent US12371428B2 (Exelixis, Inc., priority 2019, dated 2025).
